The OligoGym collection
“And” between values parts separate entries of the source, which are not always exact repeats. Equal entries are not always repeated. After the bases stand the sugars from the 5' end (letter, count) and the backbone: PS all phosphorothioate, else s phosphorothioate and o phosphodiester by linkage. Methylation of C is not given here. e = 2'-O-(2-methoxyethyl) (MOE); d = 2'-deoxy (DNA)

Molecular target: DGAT2
Conditions: ASO

Row | Sequence | target mRNA inhibition (HepG2, 0.12 µM) | target mRNA inhibition (HepG2, 2.5 µM) | target mRNA inhibition (HepG2, 10 µM) | target mRNA inhibition (HepG2, 20 µM) [%]
1 | CCAGGTAAGGCCGTATGCCT (sugars e5 d10 e5, PS) | 78% and 76% | 18% | 20% | 43
2 | CCAGTTTCGGACCCACTGTG (sugars e2 d13 e5, PS) | 80% | 12% | 25% and 50% | 50
3 | CCCAACCTTTAAGGCCTATC (sugars e5 d10 e5, PS) | – | 46% | 85% | –
4 | CCCACAGAAGAGCAAAGGCT (sugars e5 d10 e5, PS) | – | 76% and 74% | 94% and 92% | –
5 | CCCAGGAGCCCTCCTCGAAG (sugars e5 d10 e5, PS) | 54% | – | – | –
6 | CCCCCACTGTCAGTCTCTCC (sugars e5 d10 e5, PS) | – | 37% | 76% | –
7 | CCCCTCGCGCGACAGCGCAG (sugars e5 d10 e5, PS) | 25% | – | – | –
8 | CCCTGGGACTCAGTGTCCTC (sugars e5 d10 e5, PS) | – | 90% | 83% | –
9 | CCCTTGCGGTTCCGCAGGGT (sugars e5 d10 e5, PS) | 36% | – | – | –
10 | CCGCGCAGGACCCCGGAGTA (sugars e3 d14 e3, PS) | 71% | – | – | –
11 | CCGCGCAGGACCCCGGAGTA (sugars e5 d10 e5, PS) | 75% | – | – | –
12 | CCTACAGCAGAGGGAAGATG (sugars e5 d10 e5, PS) | 13% | – | – | –
13 | CCTGCAGAAAAAGCAACCAA (sugars e5 d10 e5, PS) | – | 30% | 75% | –
14 | CCTGCTTGTACACTTCATTC (sugars e5 d10 e5, PS) | – | 51% | 87% | –
15 | CCTGGACAAGTCCTGCCCAT (sugars e5 d10 e5, PS) | 73% | – | – | –
16 | CCTGTAGCTGCTTTTCCACC (sugars e5 d10 e5, PS) | 29% | – | – | –
17 | CGACAGCGCAGGTCCTCCGT (sugars e5 d10 e5, PS) | 48% | – | – | –
18 | CGATTCACTGAGGACCTCAG (sugars e5 d10 e5, PS) | – | 79% | 61% | –
19 | CGCAGGACCCCGGAGTAGGC (sugars e3 d14 e3, PS) | 65% | – | – | –
20 | CGCAGGGCCAGTTTCACAAA (sugars e5 d10 e5, PS) | 31% | – | – | –
21 | CGCGATTCACTGAGGAC (sugars e3 d10 e4, PS) | – | 73% and 74% | – | –
22 | CGGACTGAATGTCACCTCTT (sugars e5 d10 e5, PS) | – | 74% and 73% | 90% and 76% | –

Row | Sequence | target mRNA inhibition (HepG2, 0.12 µM) | target mRNA inhibition (HepG2, 2.5 µM) | target mRNA inhibition (HepG2, 10 µM) | target mRNA inhibition (HepG2, 20 µM) [%]
23 | CGGAGAGGATGCTGGATCCA (sugars e5 d10 e5, PS) | 47% | – | – | –
24 | CGTGAGCTGGTGTTCTACAA (sugars e5 d10 e5, PS) | – | 59% | 74% | –
25 | CTCAGTTCTTCCAACCAGTG (sugars e5 d10 e5, PS) | – | 83% and 68% | 93% and 91% | –
26 | CTCCCATTCTTTGAAAGCAA (sugars e5 d10 e5, PS) | – | 30% | 54% | –
27 | CTCCTCCCCTTGGCAGAGAA (sugars e5 d10 e5, PS) | 43% | – | – | –
28 | CTCTCATTTCTTATCTTCAA (sugars e5 d10 e5, PS) | – | 70% | 93% | –
29 | CTCTCCAACTCCTCCCCTTG (sugars e5 d10 e5, PS) | 25% | – | – | –
30 | CTGACATGGTAAGTCCTGAT (sugars e5 d10 e5, PS) | – | 76% and 52% | 93% and 89% | –
31 | CTGGACAAGTCCTGCCCATC (sugars e3 d14 e3, PS) | 67% | – | – | –
32 | CTGGAGGCCAGTCCAGGCTC (sugars e5 d10 e5, PS) | 23% | – | – | –
33 | CTGGCTCAGTTCACCTCCAG (sugars e5 d10 e5, PS) | 90% | – | – | –
34 | CTGTGACCTCCTGCCACCTT (sugars e5 d10 e5, PS) | 25% | – | – | –
35 | CTTACTGTTCAGCAGTCTGC (sugars e5 d10 e5, PS) | – | 57% | 90% | –
36 | CTTCACCAGGGCCTCCATGT (sugars e5 d10 e5, PS) | 46% | 10% | 66% | 87
37 | CTTGCCAGGCATGGAGCTCA (sugars e5 d10 e5, PS) | 51% | – | – | –
38 | CTTGGAGTAGGGCACCAGCC (sugars e5 d10 e5, PS) | 35% | – | – | –
39 | CTTTGAGCATCCCCAATCCC (sugars e5 d10 e5, PS) | – | 14% | 75% | –
40 | GAAACAGGCAGTAGGAAATC (sugars e5 d10 e5, PS) | 23% | – | – | –
41 | GACCCACTGGAGCACTGAGA (sugars e2 d13 e5, PS) | 70% | – | – | –
42 | GACTGCATTCTTGCCAGGCA (sugars e5 d10 e5, PS) | 60% | – | – | –
43 | GAGCACAGCGATGAGCCAGC (sugars e5 d10 e5, PS) | – | 43% | 91% | –
44 | GAGCAGGTTCATCTGCCTTG (sugars e5 d10 e5, PS) | – | 81% and 61% | 92% and 83% | –

Row | Sequence | target mRNA inhibition (HepG2, 0.12 µM) | target mRNA inhibition (HepG2, 2.5 µM) | target mRNA inhibition (HepG2, 10 µM) | target mRNA inhibition (HepG2, 20 µM) [%]
45 | GAGGAGTTCTCGAATATCCC (sugars e5 d10 e5, PS) | – | 43% | 80% | –
46 | GAGGCTCAGGCCTTGACAAC (sugars e5 d10 e5, PS) | 12% | – | – | –
47 | GATATAGTTCCTGGTGGTCA (sugars e5 d10 e5, PS) | 57% | – | – | –
48 | GCAATGTTGCCATCATACTA (sugars e5 d10 e5, PS) | – | 63% | 88% | –
49 | GCACATCTCTTCCATCTCCA (sugars e5 d10 e5, PS) | – | 74% | 92% | –
50 | GCACTCTGTGATGCTCTGGA (sugars e5 d10 e5, PS) | – | – | 90% and 84% | –
51 | GCAGCCTACAAGAGCCTGTT (sugars e5 d10 e5, PS) | – | 59% | 89% | –
52 | GCAGGTTGTGTGTCTTCACC (sugars e5 d10 e5, PS) | 65% and 73% | – | – | –
53 | GCATGAACAAGGGCAAGTCC (sugars e5 d10 e5, PS) | – | 79% | 89% | –
54 | GCATGGAGCTCAGAGACTCA (sugars e2 d13 e5, PS) | 77% | – | – | –
55 | GCATGGAGCTCAGAGACTCA (sugars e3 d14 e3, PS) | 51% | – | – | –
56 | GCATTGCCACTCCCATTCTT (sugars e2 d13 e5, PS) | 61% | – | – | –
57 | GCATTGCCACTCCCATTCTT (sugars e3 d14 e3, PS) | 85% | – | – | –
58 | GCATTTTAACAAGATCCCCA (sugars e5 d10 e5, PS) | 34% | – | – | –
59 | GCCACCCCCATCCTCATCCT (sugars e5 d10 e5, PS) | 0% | – | – | –
60 | GCCAGAGTTATCCTCAATTC (sugars e5 d10 e5, PS) | – | 89% | 78% | –
61 | GCCAGTGTAGCCAGGTAAGG (sugars e5 d10 e5, PS) | 9% | – | – | –
62 | GCCCAATATCTGATATCAAA (sugars e5 d10 e5, PS) | – | 80% and 69% | 89% and 84% | –
63 | GCCCAGTTTCGGACCCACTG (sugars e3 d14 e3, PS) | 81% | – | – | –
64 | GCCGTATGCCTGGGAACTTC (sugars e5 d10 e5, PS) | 29% | – | – | –
65 | GCCTCCATGTACATGGTGTG (sugars e5 d10 e5, PS) | 63% | – | – | –
